Results from ChEMBL document CHEMBL3244149, “New synthetic routes to tilorone dihydrochloride and some of its analogues” (J Med Chem, 1978).
The source made the active and inactive calls. No cut-off for these calls is given here.

Assays:
Mus musculus [1] = assay: Induction of interferon production in CD-1 mouse serum at 100 mg/kg, ip after 18 hrs; format: functional, organism-based; set-up: dose 100 mg/kg
Mus musculus [2] = assay: Toxicity in CD-1 mouse at 100 mg/kg, ip; format: organism-based; set-up: dose 100 mg/kg, route intraperitoneal; settings: in vivo
Mus musculus [3] = assay: Toxicity in CD-1 mouse at 300 mg/kg, ip; format: organism-based; set-up: dose 300 mg/kg, route intraperitoneal; settings: in vivo
Mus musculus [4] = assay: Induction of interferon production in CD-1 mouse serum at 10 to 30 mg/kg, ip after 18 hrs; format: functional, organism-based

Q: For CCN(CC)CCOc1ccc2c(c1)C(=O)c1cc(OCCN(CC)CC)ccc1-2, which Activity (Mus musculus [1]) is on record?
A: The Activity was “Active”.

Q: For CCN(CC)CCOc1ccc2c(c1)S(=O)(=O)c1cc(OCCN(CC)CC)ccc1-2, which Activity (Mus musculus [2]) is on record?
A: Its Activity is “Non-toxic”.

Q: What about the Activity (Mus musculus [3]) of the same molecule?
A: The Activity was “Toxic”.

Q: What about the Activity (Mus musculus [1]) of the same molecule?
A: Its Activity is “inactive”.

Q: How did the Activity (Mus musculus [2]) turn out when CCN(CC)CCOc1cccc(C(=O)c2cccc(OCCN(CC)CC)c2)c1 was run?
A: The Activity was “Toxic”.

Q: And the Activity (Mus musculus [4])?
A: Its Activity is “inactive”.

Q: What about the Activity (Mus musculus [3]) of the same molecule?
A: The Activity was “Toxic”.
